Data reported in patent publication US10662193B2, “Carbazole and carboline compounds for use in the diagnosis, treatment, alleviation or prevention of disorders associated with amyloid or amyloid-like proteins” (AC IMMUNE SA, priority 2014, dated 2020).
Values belong to the compound of their own block, whether it stands above or below them.

Key:
[1] = test system: tau tangles/Aβ plaques on AD brain sections; assay: Assay 1: direct staining of human Alzheimer's disease brain sections (fluorescence); assay type: binding; parameters: key to Direct staining of tau tangles/Aβ plaques on AD brain sections at 100 μM / Direct staining of tau tangles on AD brain sections at 100 μM / Direct staining of Aβ plaques on AD brain sections at 100 μM / Direct staining of tau tangles on AD brain sections (footnote a: at 250 μM): − (No); +++ (strong); ++ (good); + (weak); details: 100 μM compound; for Direct staining of tau tangles/Aβ plaques on AD brain sections at 100 μM: human AD brain sections, fluorescence, cell does not say tangles or plaques
Experimental: Assay 1 (Fluorescence Based Assay):
(§1) Direct Binding of Compounds of this Invention to Human Alzheimer's Disease Brain Sections and/or Displacement of RefA and Compound B
(§2) Frozen sections with a thickness of […] from the amygdala of donors diagnosed with Braak stage V-VI Alzheimer's Disease (Braak, H.; Braak, E. Acta Neuropathol., 1991, 82, 239-259), were purchased from a commercial provider (Tissue Solutions) and kept at −80° C. until use.
Direct Staining of Human Alzheimer's Disease Brain Sections
Brain sections were encircled with pap pen liquid blocker to reduce the volume of solution for the different incubations. Sections were fixed for 15 min at 4° C. with 4% paraformaldehyde and washed three times 5 minutes with PBS at room temperature. […] To reduce the auto-fluorescence of the tissue, the sections were incubated in a solution of 0.1% Sudan Black (Sigma 199664) in 70% ethanol for 15 min at room temperature in the dark, washed four times for 5 minutes with PBS, and mounted using ProLong Gold Antifade reagent (Invitrogen P36930). Sections were then analyzed on the Nikon Eclipse Ti microscope to detect staining and imaged using Nikon DS-Fi2 camera and NIS-Element AR4.13.1 software.

[2] = test system: tau tangles on AD brain section; assay: Assay 1: displacement of RefA on human AD brain sections (fluorescence); assay type: binding; details: 1 μM RefA vs. 250 μM compound
Experimental: as §1, §2
Displacement of RefA and Compound B
Brain sections were mainly treated as described above. Test compounds were, however, incubated on the section at 250 μM in 50% ethanol for 20 min at room temperature, and then directly incubated with the fluorescent reference compounds RefA and Compound B, each at 1 μM in 50% ethanol for 20 min at room temperature. RefA and Compound B stainings were visualized using the 470 nm and 365 nm excitation filters, respectively. Images were acquired, and tangles and plaques quantified using the NIS-Element software. Only those compounds not directly staining tangles or plaques at the same wavelengths as RefA and Compound B were tested in the displacement assay.
Structure of RefA (Tago et al., J. Label. Compd. Radiopharm. 2013, DOI: 10.1002/jlcr.3133)

Competition on AD brain section tau tangles (1 μM RefA vs. 250 μM compound) [2]: 89%
Compound: Cn1c2ccncc2c2ccc(Nc3ccn(CCF)n3)nc21 [Example 47]
Direct staining of tau tangles on AD brain sections at 100 μM [1]: ++ (tangles)

Competition on AD brain section tau tangles (1 μM RefA vs. 250 μM compound) [2]: 91%
Compound: Cn1c2ccncc2c2ccc(Nc3cnn(CCF)c3)nc21 [Example 40]
Direct staining of tau tangles on AD brain sections at 100 μM [1]: +++ (tangles)

Competition on AD brain section tau tangles (1 μM RefA vs. 250 μM compound) [2]: 39%
Compound: Cn1c2ccncc2c2ccc(Nc3cnn(CCCCF)c3)nc21 [Example 45]
Direct staining of tau tangles/Aβ plaques on AD brain sections at 100 μM [1]: −

Competition on AD brain section tau tangles (1 μM RefA vs. 250 μM compound) [2]: 55%
Compound: Cn1c2ccncc2c2ccc(Nc3ccnn3CCF)nc21 [Example 46]
Direct staining of tau tangles/Aβ plaques on AD brain sections at 100 μM [1]: −

Compound: CN1CCc2c(c3ccc(N4CCC[C@@H](F)C4)nc3n2C)C1=O [Example 196]
Direct staining of tau tangles/Aβ plaques on AD brain sections at 100 μM [1]: −

Compound: Cn1c2c(c3ccc(Nc4ccc5nsnc5c4)nc31)C(=O)N(CCF)CC2 [Example 188]
Direct staining of tau tangles/Aβ plaques on AD brain sections at 100 μM [1]: −

Compound: Cn1c2c(c3ccc(Nc4ccc(C#N)c(F)c4)nc31)C(=O)NCC2 [Example 179]
Direct staining of tau tangles on AD brain sections at 100 μM [1]: + (tangles)

Compound: Cn1c2c(c3ccc(Nc4cc(OCCF)ccn4)nc31)C(=O)NCC2 [Example 208]
Direct staining of tau tangles/Aβ plaques on AD brain sections at 100 μM [1]: −

Compound: Cn1c2ccncc2c2ccc(Nc3ccc(F)c(F)c3)cc21 [Example 39]
Direct staining of tau tangles on AD brain sections at 100 μM [1]: ++ (tangles)

Compound: COc1cc(Nc2ccc3c4cnccc4n(C)c3n2)ccn1 [Example 24]
Direct staining of Aβ plaques on AD brain sections at 100 μM [1]: + (plaques)

Compound: Cn1c2ccncc2c2ccc(Nc3ccc([N+](=O)[O-])c(F)c3)nc21 [Example 99]
Direct staining of tau tangles/Aβ plaques on AD brain sections at 100 μM [1]: −

Compound: Cn1c2c(c3ccc(Nc4cccc(OCCF)n4)nc31)C(=O)NCC2 [Example 210]
Direct staining of tau tangles/Aβ plaques on AD brain sections at 100 μM [1]: −

Compound: CN1CCc2c(c3ccc(Nc4cccc(F)n4)nc3n2C)C1=O [Example 185]
Direct staining of Aβ plaques on AD brain sections at 100 μM [1]: + (plaques)

Compound: Cn1c2ccncc2c2ccc(Nc3ccnc(OCCF)c3)nc21 [Example 58]
Direct staining of Aβ plaques on AD brain sections at 100 μM [1]: +++ (plaques)

Compound: Cn1c2ccncc2c2ccc(Nc3ccc(OCCF)nc3)nc21 [Example 50]
Direct staining of Aβ plaques on AD brain sections at 100 μM [1]: + (tangles) + (plaques)
Direct staining of tau tangles on AD brain sections at 100 μM [1]: + (tangles) + (plaques)

Compound: Cn1c2ccncc2c2ccc(N3CCN(c4ccc(F)cc4)CC3)nc21 [Example 25]
Direct staining of Aβ plaques on AD brain sections at 100 μM [1]: + (tangles) + (plaques)
Direct staining of tau tangles on AD brain sections at 100 μM [1]: + (tangles) + (plaques)

Compound: Cc1ccc(Nc2ccc3c4cnccc4n(C)c3n2)cc1OC(F)F [Example 36]
Direct staining of Aβ plaques on AD brain sections at 100 μM [1]: + (plaques)

Compound: Cn1c2ccncc2c2ccc(Nc3csc(OCCF)n3)nc21 [Example 69]
Direct staining of tau tangles on AD brain sections at 100 μM [1]: ++ (tangles)

Compound: CN(C)c1cc(Nc2ccc3c4cnccc4n(C)c3n2)ccc1F [Example 41]
Direct staining of tau tangles/Aβ plaques on AD brain sections at 100 μM [1]: −

Compound: Cn1c2ccncc2c2ccc(N3CC[C@H](F)C3)nc21 [Example 160]
Direct staining of tau tangles/Aβ plaques on AD brain sections at 100 μM [1]: −

Compound: Cn1c2ccncc2c2ccc(Nc3cccc(CCF)n3)nc21 [Example 149]
Direct staining of tau tangles on AD brain sections at 100 μM [1]: ++ (tangles)

Compound: Cn1c2ccncc2c2ccc(Nc3cccc(NCCF)c3)nc21 [Example 71]
Direct staining of Aβ plaques on AD brain sections at 100 μM [1]: + (tangles) + (plaques)
Direct staining of tau tangles on AD brain sections at 100 μM [1]: + (tangles) + (plaques)

Compound: Cn1c2ccncc2c2ccc(Nc3cccc(C(F)F)c3)nc21 [Example 35]
Direct staining of Aβ plaques on AD brain sections at 100 μM [1]: ++ (tangles) ++ (plaques)
Direct staining of tau tangles on AD brain sections at 100 μM [1]: ++ (tangles) ++ (plaques)

Compound: Cn1c2ccncc2c2ccc(N3CCC[C@H](F)C3)nc21 [Example 158]
Direct staining of tau tangles on AD brain sections at 100 μM [1]: ++ (tangles)

Compound: Cn1ccc2c(c1=O)c1ccc(Nc3ccc(F)c(F)c3)nc1n2C [Example 194]
Direct staining of tau tangles/Aβ plaques on AD brain sections at 100 μM [1]: −

Compound: CN1CCc2c(c3ccc(Nc4cccc(NCCF)n4)nc3n2C)C1=O [Example 81]
Direct staining of tau tangles/Aβ plaques on AD brain sections at 100 μM [1]: −

Competition on AD brain section tau tangles (1 μM RefA vs. 250 μM compound) [2]: 91%
Compound: Cn1c2ccncc2c2ccc(Nc3cccc(NCCF)n3)nc21 [Example 78]
Direct staining of tau tangles on AD brain sections at 100 μM [1]: ++ (tangles)

Compound: CN1CCc2c(c3ccc(Nc4cnn(CCCF)c4)nc3n2C)C1=O [Example 191]
Direct staining of tau tangles/Aβ plaques on AD brain sections at 100 μM [1]: −

Compound: Cc1ccc(Nc2ccc3c4cnccc4n(C)c3n2)cc1OCCF [Example 34]
Direct staining of tau tangles on AD brain sections at 100 μM [1]: +++ (tangles)

Compound: Cn1c2ccncc2c2ccc(Nc3cccc(N4CCC(F)CC4)c3)nc21 [Example 33]
Direct staining of Aβ plaques on AD brain sections at 100 μM [1]: + (tangles) + (plaques)
Direct staining of tau tangles on AD brain sections at 100 μM [1]: + (tangles) + (plaques)

Compound: Cn1c2c(c3ccc(Nc4ccc(OCCF)cn4)nc31)C(=O)NCC2 [Example 207]
Direct staining of tau tangles/Aβ plaques on AD brain sections at 100 μM [1]: −

Compound: Cn1c2c(c3ccc(Nc4ccc(C#N)c(F)c4)nc31)C(=O)N(CCF)CC2 [Example 187]
Direct staining of tau tangles on AD brain sections at 100 μM [1]: + (tangles)

Compound: COc1cc(Nc2ccc3c4c(n(C)c3n2)CCNC4=O)ccn1 [Example 181]
Direct staining of tau tangles on AD brain sections at 100 μM [1]: + (tangles)

Compound: Cn1c2c(c3ccc(Nc4cnn(CCF)c4)nc31)C(=O)NCC2 [Example 186]
Direct staining of Aβ plaques on AD brain sections at 100 μM [1]: + (plaques)

Compound: Cn1c2ccncc2c2ccc(Nc3ccc(F)c([N+](=O)[O-])c3)nc21 [Example 98]
Direct staining of tau tangles/Aβ plaques on AD brain sections at 100 μM [1]: −

Compound: Cn1c2ccncc2c2ccc(Nc3cccc(SCCF)c3)nc21 [Example 43]
Direct staining of Aβ plaques on AD brain sections at 100 μM [1]: + (tangles) + (plaques)
Direct staining of tau tangles on AD brain sections at 100 μM [1]: + (tangles) + (plaques)

Compound: Cn1c2c(c3ccc(Nc4cccc(F)n4)nc31)C(=O)NCC2 [Example 184]
Direct staining of Aβ plaques on AD brain sections at 100 μM [1]: + (plaques)

Compound: Cn1c2ccncc2c2ccc(Nc3cccc(OCCOCCF)n3)nc21 [Example 56]
Direct staining of tau tangles on AD brain sections at 100 μM [1]: ++ (tangles)

Compound: CN1CCc2c(c3ccc(Nc4ccc(F)c([N+](C)(C)C)c4)nc3n2C)C1=O [Example 212]
Direct staining of tau tangles/Aβ plaques on AD brain sections at 100 μM [1]: −

Compound: CN1CCc2c(c3ccc(Nc4ccc(F)c([N+](=O)[O-])c4)nc3n2C)C1=O [Example 211]
Direct staining of tau tangles/Aβ plaques on AD brain sections at 100 μM [1]: −

Compound: Cn1c2c(c3ccc(Nc4ccc(N5CCOCC5)cc4)nc31)C(=O)NCC2 [Example 173]
Direct staining of tau tangles/Aβ plaques on AD brain sections at 100 μM [1]: −

Compound: CN1CCc2c(c3ccc(Nc4ccnc(OCCF)c4)nc3n2C)C1=O [Example 204]
Direct staining of tau tangles/Aβ plaques on AD brain sections at 100 μM [1]: −

Compound: Cn1c2ccncc2c2ccc(Nc3ccc(OCCF)cn3)nc21 [Example 62]
Direct staining of tau tangles on AD brain sections at 100 μM [1]: + (tangles)
